Where “and” joins values, the source holds several entries; their conditions need not be identical. Equal values may be shown once. Where only a bound is given, the exact number is not on record here.

The subject of data set [1] is HIV-1 Ba-L strain. Description: HIV challenge of stable Ghost3 (Ghost3+CXCR4+CCR5) cells, P24 assay. It is filed as cell-based. How it is done:
Ghost 3+CXCR4+CCR5 cells, HIV NL4-3 and Ba-L strains were obtained from the NIH AIDS Reagent Program. Ghost cells and HEK293 cells (ATCC CRL-1573) were grown on DMEM supplemented with 10% FBS and 1 mM Glutamine. CCRF-CEM (ATCC CRM-CCL-119) cells were grown in RPMI supplemented with 10% FBS and 1 mM Glutamine. HEK293 and Ghost cells were transfected with Lipofectamine 2000 according to the manufacturer's protocol (ThermoFisher, Waltham, Mass., USA). To generate stable HEK293 cell lines, 2 million cells were transfected with pJR255-based plasmids that express aptamers alone, shLuc, or shLuc-aptamer fusions. Transfected cells were selected with G418 (Gold Biotechnology, St. Louis, Mo., USA) for 10 to 14 days, followed by Fluorescent Activated Cell Sorting (FACS) to isolated mCherry positive cells. Typically, the brightest 10 to 30% of cells were collected. Second FACS was performed 7 to 10 days after the first sort to isolate stable cell populations. […] Ghost cells were already G418 resistant, therefore, no selection step was performed. 0.5M cells were transfected with pJR255 based plasmids that express shLuc, aptamer alone or shLuc-aptamer fusions. Transfected cells were sorted 7 days after transfection. Compared to HEK293 cells, the percentage of mCherry positive cells was much lower because no drug selection was applied. Typically, the brightest 5 to 10% of cells were collected. A second sort was performed 14 days later. If a decrease in mCherry signal was observed, a third sort was performed.
(§1) For the lentivirus challenge, 5×10^4 HEK293 cells stably expressing the aptamer alone, the shRNA alone or the shRNA-aptamer fusions were transduced with HIV7-GFP lentivirus particles at an MOI of 0.3 in 500 μl cell culture medium. Cells were harvested 10 days post-transduction and analyzed by FACS. For an initial HIV challenge, 5×10^4 Ghost(3)X4/R5 cells stably expressing shRNA alone or shRNA-aptamer fusions were infected with HIV-1 Ba-L strain at an MOI of 0.02 in 500 μl medium. The HIV concentration of cells in culture was determined using a P24 assay with an Alliance HIV-1 P24 ELISA kit. (PerkinElmer, Waltham, Mass., USA). For a long term HIV challenge, 1×10^5 CCRF-CEM cells stably expressing shRNA or shRNA-aptamer fusions were infected with HIV-1 NL4-3 viruses at MOI of 0.02 in 500 μl medium. […]
To test if the shRNA-fusions can exert inhibition during subsequent infection cycles using replication competent HIV, stable Ghost3+CXCR4+CCR5 cell lines expressing the shLuc alone and the shLuc-S1R1, shLuc-S3R1 and shLuc-53R3 fusions were generated (abbreviated as Ghost3 cells in following text) (Morner, et al., 1999). […] The HIV concentration in cultures was monitored by P24 assay for 9 days.

Data set [2] concerns HIV. Particulars: 10% FBS cell culture; cited from earlier work.
In data set [3] the test system is HIV7-GFP lentivirus. Description: Single cycle lentivirus HIV7-GFP challenge of stable HEK293 cells, FACS. Type of data set: cell-based, HIV. As to conditions: aptamer alone expressed directly from U6 promoter, HEK293, MOI 0.3, FACS 10 days after transduction. An excerpt:
A direct functional assay was used to test the inhibitory effect of the aptamer candidates for combinational gene therapy in T cells or hematopoietic stem cells (HSC). To this end, plasmids (pJR255) consisting of: 1) a U6 promoter for inducing the expression of the aptamers, 2) a G418 resistant cassette for selection, and 3) an mCherry marker for cell purification and functional analysis were generated. (FIG. 11). RNAs expressed from U6 (pol III) promoter lack nucleus export signals and stay in the nucleus (18,19,20,21). Integrase functions primarily in the nucleus. […] Each population of cells was transduced with lentiHIV particles at an MOI of 0.3. The transduced cells were analyzed by FACS 10 days after transduction to minimize the effects of GFP from nonintegrated viral DNA. If an aptamer exerts any inhibition of HIV integrase, the percentage of GFP and mCherry double-positive cells should be reduced compared to the control.
For the lentivirus challenge, 5×10^4 HEK293 cells stably expressing the aptamer alone, the shRNA alone or the shRNA-aptamer fusions were transduced with HIV7-GFP lentivirus particles at an MOI of 0.3 in 500 μl cell culture medium. Cells were harvested 10 days post-transduction and analyzed by FACS. […] The HIV concentration of cells in culture was determined using a P24 assay with an Alliance HIV-1 P24 ELISA kit. […]

The target of data set [4] is T1, HIS tagged HIV-1 Integrase (HIS-IN) (Human immunodeficiency virus type 1 group M subtype B, UniProt P12497, C1427S/F1332K).
T1 construct: HIS tagged HIV-1 Integrase (HIS-IN) expression vector; made in house; host or cells: E. coli strain C3016
It is filed as binding. Here is the method: The gel mobility shift assay was carried out as described (Zhou, et al, 2009). RNA aptamers were transcribed from annealed oligonucleotide pairs (Table 1) containing T7 promoter sequences using Megashortscript T7 transcription kit (Thermofisher Scientific, Waltham, Mass., USA). Percentage binding was determined by Image J (http://imagej.nih.gov/ij/index.html). ^32P labeled and folded aptamers (final concentration of 2 nM) were incubated with HIS-IN protein (final concentration of 0, 20, 40, 80, 160 and 320 nM) at 37° C. for 30 min. The complexes were then separated by 5% native polyacrylamide gel. Autoradiographs were acquired via Typhoon phosphorimaging system (GE Healtcare Life Science, Pittsburgh Pa. 15264, USA). Digital images were imported and analyzed by ImageJ software (http://imagej.nih.gov/ij/index.html). 50 percent binding values were determined by the Prism 6 software (GraphPad Software Inc) using non-linear curve regression. Northern analysis of total or fractionated RNAs was carried out as described (Castanott, et al., 2009) using probes listed in primer list (Table 1). Quantification of relative band intensity was measured and calculated using Image J software.

The test system of data set [5] is HIV-1 NL4-3. Description: Long term HIV challenge of stable CCRF-CEM cells, p24 assay. Type of data set: cell-based. As to conditions: pNL4-3 MOI 0.01, monitored six weeks. How it is done:
To generate stable CCRF-CEM cell lines, 2 million cells were transfected with […]-based plasmids, that express shLuc, shLuc-S1R1, shLuc-S3R1 and shLuc-S3R3, by electroporation using the Nucleofactor kit according to the manufacturer's protocol (Lonza, Basel, Switzerland). G418 selection and FACS were performed similar to that of HEK293 cells.
as §1, with “USA).” for “USA). For a long term HIV challenge, 1×10^5 CCRF-CEM cells stably expressing shRNA or shRNA-aptamer fusions were infected with HIV-1 NL4-3 viruses at MOI of 0.02 in 500 μl medium.”
The long-term efficacy of shRNA-aptamer fusions in CD4 positive T cells was tested using CEM cells stably expressing shLuc, shLuc-S3R3, shS1 or shS1-S3R3. […] HIV concentrations were monitored for six weeks by p24 assay (FIG. 8). […] In summary, anti-integrase aptamer expressed as an shRNA-aptamer fusion can confer long term resistance to HIV-1 replication in T cells. […]

For data set [6], the system named is firefly luciferase. Description: Luciferase assay in HEK293 clone stably expressing firefly luciferase. It is filed as cell-based. Particulars: U6 driven shLuc or shLuc-aptamer fusion, Day 2 or Day 3 after transfection. Here is the method: A HEK293 cell clone stably expressing firefly luciferase was transfected with the plasmids expressing the shLuc or the shLuc-aptamer fusions. Cells were harvested two or three days post-transfection and their firefly luciferase activities were determined by the Luciferase Assay System (Promega, Madison, Wis., USA).
Using a luciferase assay, export of the shRNA-aptamer fusion into the cytoplasm was tested. […] (FIG. 4B). […] Northern blot analyses on fractionated samples were performed to further assess the distribution and processing of the shLuc-aptamer fusion.

[7] abbreviates: Human immunodeficiency virus 1, BAL, 216 h, read-out: inhibition of HIV replication.

By inhibition is commonly meant the relative decrease from the control value, in per cent. For orientation: IC50 means the midpoint of a concentration-inhibition curve. Broadly, the IC95 is the point of the concentration-response curve where the effect stands at 95%. For the molecule `Cc1nnc(C(=O)NC(C)(C)c2nc(C(=O)NCc3ccc(F)cc3)c(O)c(=O)n2C)o1` [Raltegravir, reference compound], in data set [1] (setting [7]), the inhibition at 0.002 µM was 96% and the inhibition at 0.02 µM is more than 99%. In data set [2], the IC50 was 2 nM and the IC95 was 20 nM.

Take “S3R3: anti-HIV integrase RNA aptamer; variable region CGTCGTATGCTGCGCCATGGGGTGGACTG (SEQ ID NO:5) (variable region only, further chemistry not given here)”: the “inhibition of HIV-7GFP integration” value in data set [3] is reported as “did not inhibit”. The “HIV inhibition, in words” value in data set [1] (Ba-L, Ghost3 cells, p24 monitored for 9 days) is on record as “weaker than a low dose of Raltegravir”. In data set [4] (2 nM 32P labeled aptamer, HIS-IN 0-320 nM, 37° C. 30 min, read-out: binding affinity to HIS-IN (50 percent binding value)), the Kd was found to be 47 nM. Besides, the “binding affinity to HIS-IN compared to S1R1” value in data set [4] (gel shift) is “higher binding affinity”.

B1: shLuc-S3R3: shLuc-aptamer fusion with integrase aptamer S3R3 (SEQ ID NO: 23, 24) (nucleic acid)
DNA 1: CACCGCTTACGCTGAGTACTTCGAAACAAGGAGGACGATGCGGGCCGTCGTATGCTGCGCCATGGGGTGGACTGGGTGGCGCGAAGTTCGAAGTACTCAGCGTAAG
DNA 2: AAAACTTACGCTGAGTACTTCGAACTTCGCGCCACCCAGTCCACCCCATGGCGCAGCATACGACGGCCCGCATCGTCCTCCTTGTTTCGAAGTACTCAGCGTAAGC
modifications: expressed or natural sequence; the letters are possibly those of the target site
As for B1, the “inhibition of HIV replication (relative P24 concentration compared to shLuc control)” value in data set [1] (Ghost3 cells expressing shRNA or shRNA-aptamer fusion, Ba-L MOI 0.02, Day 9) is ~85% and 78%. For the same molecule, in data set [5], the “viral concentration (p24) relative to control (shLuc)” value is reported as “more than three orders of magnitude lower”.

B2: shLuc: U6 promoter driven shRNA targeting luciferase with an artificial 10 bases loop (nucleic acid)
chain 1: CACCGCTTACGCTGAGTACTTCGAAATTGAAGCTTGTTTCGAAGTACTCAGCGTAAG
chain 2: AAAACTTACGCTGAGTACTTCGAAACAAGCTTCAATTTCGAAGTACTCAGCGTAAGC
modifications: the letters are possibly those of the target site
notes: U6 promoter driven shRNA targeting luciferase with an artificial 10 bases loop
B2: the “inhibition of luciferase activity” value in data set [6] is “slightly stronger”.

B3: S3R1: anti-HIV integrase RNA aptamer, oligos JRO502/JRO503 (SEQ ID NO: 15, 16) (nucleic acid)
DNA 1: CACCGCGGGCCCTAGACGCGCTGCCGTGGAGGAGGAGGTTGGTGGCGCGAGAGGTG
DNA 2: AAAACACCTCTCGCGCCACCAACCTCCTCCTCCACGGCAGCGCGTCTAGGGCCCGC
modifications: listed as DNA, chemistry not fully specified; the letters are possibly those of the target site
Regarding B3, the “inhibition of HIV-7GFP integration” value in data set [3] was “did not inhibit”.

Source of the values: patent publication US10369167B2, “Continuously expressed therapeutic RNAs for targeted protein binding and methods for their use” (priority 2016, dated 2019).
